The target in the test is T1, human subtype 5 somatostatin receptor (Homo sapiens, UniProt P35346).
T1 construct: host or cells: CHO cells, stably transfected; membranes prepared from them
T1 sequence (P35346 whole entry): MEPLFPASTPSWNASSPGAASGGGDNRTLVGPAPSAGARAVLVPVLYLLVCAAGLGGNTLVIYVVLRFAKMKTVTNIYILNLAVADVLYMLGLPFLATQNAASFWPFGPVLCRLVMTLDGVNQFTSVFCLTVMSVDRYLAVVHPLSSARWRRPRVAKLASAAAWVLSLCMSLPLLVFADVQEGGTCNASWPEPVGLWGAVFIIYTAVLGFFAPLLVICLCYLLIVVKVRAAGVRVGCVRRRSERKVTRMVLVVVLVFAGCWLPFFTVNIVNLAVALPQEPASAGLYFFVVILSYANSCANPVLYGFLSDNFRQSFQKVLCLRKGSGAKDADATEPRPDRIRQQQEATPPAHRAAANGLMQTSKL
The experiment in a line: SSTR5 radioligand binding assay (125I-labeled 11-Tyr somatostatin-14 tracer, membranes of transfected CHO cells). The note with it: CHO cell membranes, Ki calculated from IC50 by Cheng-Prussoff equation. The protocol: A CHO cell line stably transfected with a plasmid encoding the human subtype 5 somatostatin receptor (GenBank accession number D16827) was obtained from Euroscreen. Cells were cultured and used for binding and functional assays.
Membranes of these cells were prepared by sonication in the presence of protease inhibitors and subsequent fractionating centrifugation. The protein concentration in the membrane preparation was determined using a commercial kit (BCA kit, Pierce, USA). Membranes were stored at −80° C. until use. After thawing, membranes were diluted in assay buffer (50 mM Tris-HCl at pH 7.4, 5 mM MgCl2 and 0.20% BSA) and subjected to dounce homogenization.
For binding studies, 0.1 mL membrane suspension, corresponding to app. 6×10^−15 mol receptor, was incubated for 1 h at room temperature with 0.05 nM ^125I-labeled tracer (11-Tyr somatostatin-14, Perkin-Elmer) and either test compounds in varying concentrations or, for the determination of non-specific binding, 0.001 mM non-labeled somatostatin-14. The incubation was stopped by filtration through GF/B glassfiber filters and washing with ice-cold wash buffer (50 mM Tris-HCl at pH 7.4). The bound radioactivity was measured after application of a scintillation cocktail (Microscint 40) and expressed as disintegrations per minute (dpm).
The receptor concentration was determined in a prior saturation experiment where a fixed, arbitrary amount of membranes was incubated with a concentration range of radio-labeled tracer. This allows estimating the total number of specific binding sites per amount of protein (i.e., Bmax), typically between 1 and 5 pmol/mg.
The concentration of the test compound required to result in half maximal inhibition of binding of the radio-labeled tracer (IC50) was estimated from a concentration-versus-dpm graph. The binding affinity (Ki) was calculated from the IC50 by applying the Cheng-Prussoff equation for single binding sites.
On to `CCOc1cc(CN2CCC(Nc3ncc(-c4ccc(OC)cc4)cn3)CC2)ccc1Cl` [Example 161, [1-(4-chloro-3-ethoxy-benzyl)-piperidin-4-yl]-[5-(4-methoxy-phenyl)-pyrimidin-2-yl]-amine], for which the inhibition constant (Ki) was 31 nM.

In the case of `CCOc1cc(CN2CCC(Nc3ncc(C#N)c(N)n3)CC2)cc(OCOC)c1I` [Example 137, 4-amino-2-[1-(3-ethoxy-4-iodo-5-methoxymethoxy-benzyl)-piperidin-4-ylamino]-pyrimidine-5-carbonitrile], the Ki was 6.4 nM.

With `CCOc1cc(CN2CCC(Nc3nc(N)c4cc(C)ccc4n3)CC2)ccc1OC` [Example 8, N^2-[1-(3-Ethoxy-4-methoxy-benzyl)-piperidin-4-yl]-6-methyl-quinazoline-2,4-diamine], the Ki is 490 nM.

A word on the Ki: it is a dissociation constant, usually derived from enzyme kinetics or from competition with a known ligand.

The values are drawn from patent US7855194B2, “Pyrimidine, quinazoline, pteridine and triazine derivatives” (Hoffmann-La Roche Inc., priority 2006, dated 2010).
